Experimental data taken from patent US7973145B2, “Sulfonated sugar compounds, pharmaceutical compositions which contain the same, and methods of treating tumors with the same” (priority 2007, dated 2011).

Tests used:
[1] = tested on: bone marrow cells (immature erythrocytes); assay: Micronucleus test by rat intravenous administration; type: in vivo; conditions: male SD rats
Experimental: Five male SD rats were assigned to each of the six groups (1) to (6): The test solutions for (1) to (5) contained a normal saline solution containing 10% CREMOPHOR EL as the solvents, and the above-described doses were administered to the rats twice in total for two consecutive days. To the positive control group, the above-described dose was administered once. About 24 hours after the administration, bone marrow smears were prepared. Two thousands of immature erythrocytes were counted for each individual, and the incidence of immature erythrocytes having a micronucleus was calculated. As the index of marrow proliferation suppression, the proportion of immature erythrocytes contained in 1000 erythrocytes was calculated. […] In addition, no influence was found on the marrow proliferation suppression in the test substance-administered group.

[2] = tested on: Human esophageal squamous cell carcinoma cells TE-8; assay: Radiosensitizing effect test, tumor-bearing mouse, human esophageal squamous cell carcinoma; type: in vivo, KSN nude mice
Experimental: (§1) The radiosensitizing effect was examined through tumor-bearing mouse experiment.
Human esophageal squamous cell carcinoma cells TE-8 were transplanted into the right femoral region of KSN nude mice in a ratio of 1×10^6 cells per individual. Subsequently, the mice were bred for about 14 days to form a tumor mass of about 150 mm^3 in each individual. Thereafter, four mice were assigned to each of the following groups (1) to (4):
(§2) The drug was administered from Day 1 to Day 5, 2 mg/kg once a day. The subjects were exposed to radiation emitted from an X-ray generator (HS-225, manufactured by Shimadzu Co., Ltd.) at a dose of 2 Gy on Day 1 and Day 4. The tumor volume was calculated according to the calculation formula: (minor axis)^2×major axis×0.5.
This experiment was conducted in the same manner as Example V-1, except that the drug dose administered from Day 1 to Day 5 was 1 mg/kg once a day, and the radiation dose was 4 Gy, and the tumor volume was measured.
Human esophageal squamous cell carcinoma cells TE-8 were transplanted into the right femoral region of KSN nude mice in a ratio of 1×10^6 cells per individual. After a tumor mass of about 50 mm^3 was formed in each individual, four mice were assigned to each of the four groups (1) to (4):
The drug was administered intraperitoneally from Day 1 to Day 5, 1 mg/kg once a day. The subjects were exposed to radiation emitted from an X-ray generator (HS-225, manufactured by Shimadzu Co., Ltd.) at a dose of 4 Gy on Day 1 and Day 4.

[3] = tested on: human vascular endothelial cells and human fibrocytes; assay: Tube formation inhibition test using vascular endothelial cell-fibrocyte cocultivation system (angiogenesis kit KZ-1000); type: cell-based; conditions: FIG. 10, combined with 2 Gy radiation, calcium(salt)-substituted compound, 10 ng/ml VEGF-A
Experimental: Using a angiogenesis kit (KZ-1000) manufactured by Kurabo Industries Ltd., which is a cocultivation system for human vascular endothelial cells and human fibrocytes, the effects of αSQAP C10:0, αSQAP C14:0, αSQAP C18:0, αSQAP C22:0, βSQAP C18:0, and βSQAP C18:1 on tube formation were examined. Cultivation for tube formation using the kit was conducted according to the manufacturer's instruction manual.
Using a medium containing a final concentration of 10 ng/ml of VEGF-A and being designed specifically for angiogenesis, the respective SQAP compounds were prepared to have intended concentrations. On Day 1 of the cell cultivation, special media each containing SQAP compounds at the respective concentrations and DMSO (negative control) were added to the cultivation systems. The systems were cultivated for 30 minutes, and irradiated with 2 Gy of cobalt 60. Thereafter, on Days 4, 7, and 10 of the cultivation, the media were replaced with newly prepared special media containing SQAP or DMSO. The media were removed on Day 11 of the cultivation, fixed with 70% ethanol, and the formed tubes were stained with anti-human CD31 antibody. The stained figures were photographed under an optical microscope, and the quantity of tube formation was calculated by the image analysis. The angiogenesis index was calculated according to the manufacturer's instruction manual.

[4] = Solubility measurement in injectable water; type: physicochemical; conditions: 1 g in 5 ml of injectable water
[5] = tested on: Human colonic adenocarcinoma cells SW480; assay: Radiosensitizing effect test, tumor-bearing mouse, human colonic adenocarcinoma; type: in vivo, KSN nude mice
Experimental: as §1
Human colonic adenocarcinoma cells SW480 were transplanted into the right femoral region of KSN nude mice in a ratio of 1×10^6 cells per individual. Subsequently, the mice were bred for about 14 days to form a tumor mass of about 150 mm^3 in each individual.
as §2
Human colonic adenocarcinoma cells SW480 were transplanted into the right femoral region of KSN nude mice in a ratio of 2×10^6 cells per individual. After a tumor mass of about 50 mm^3 was formed in each individual, four mice were assigned to each of the four groups (1) to (4):
The drug was administered from the tail vein from Day 1 to Day 5, 1 mg/kg once a day. The subjects were exposed to radiation emitted from an X-ray generator (HS-225, manufactured by Shimadzu Co., Ltd.) at a dose of 2 Gy on Day 1 and Day 4.

[6] = tested on: Human colonic adenocarcinoma cells SW480; assay: Antineoplastic effect test (drug alone), tumor-bearing mouse; type: in vivo, KSN nude mice; conditions: Example VI, FIG. 9; calcium(salt)-substituted compound alone, intraperitoneally 20 mg/kg once a day Day 1 to Day 14
Experimental: Human colonic adenocarcinoma cells SW480 were transplanted into the right femoral region of KSN nude mice in a ratio of 2×10^6 cells per individual. After a tumor mass of about 50 mm^3 was formed in each individual, four mice were assigned to each of the two groups (1) and (2):
The drug was administered intraperitoneally from Day 1 to Day 14, 20 mg/kg once a day.

SD rats = assay: Single dose (acute) toxicity test; type: in vivo; conditions: female and male SD rats, single dose via tail vein
Experimental: Using αSQAP C18:0, an acute toxicity test was conducted on rats. Five female and five male SD rats of 5 to 6 weeks old were assigned to each of the groups (1) to (7):
The test solution for (1) and (4) to (7) contained a normal saline solution containing 10% CREMOPHOR EL, (2) contained a normal saline solution containing 2.5% CREMOPHOR EL, and (3) contained a normal saline solution containing 5% CREMOPHOR EL as the solvents.

[7] = tested on: Salmonella typhimurium and Escherichia coli indicator bacterial strains; assay: Reverse mutation assay (Ames test); conditions: 2 μg to 5000 μg per plate, presence or absence of S9 mix, all five strains
[8] = intravenous, 25 to 200 mg/kg twice for two consecutive days
[9] = Examples V-5 and V-6, FIG. 7 and 8, calcium(salt)-substituted compound, intraperitoneally 1 mg/kg once a day Day 1 to Day 5 plus X-ray 4 Gy on Day 1 and Day 4
[10] = final concentrations of 5, 10, and 20 μM
[11] = final concentrations of 5 and 10 μM

## 3-O-(6-sulfo-α-D-quinovopyranosyl)-1-O-stearoyl-propane-1,3-diol calcium salt [αSQAP C18:0 calcium salt]
[1]; intravenous, 25, 50, 100, 200 mg/kg twice for two consecutive days, bone marrow about 24 hours after
  incidence of micronuclei (immature erythrocytes having a micronucleus) in comparison with the non-administered group: no significant increase
[1]; [8]
  chromosomal aberration in bone marrow cells: inducing no chromosomal aberration
  marrow proliferation suppression (proportion of immature erythrocytes in 1000 erythrocytes): no influence

## CCCCCCCCCC(=O)OCCCO[C@H]1O[C@H](CS(=O)(=O)[O-])[C@@H](O)[C@H](O)[C@H]1O.[Na+] [αSQAP C10:0, 3-O-(6-sulfo-α-D-quinovopyranosyl)-1-O-decanoyl-propane-1,3-diol sodium salt]
[2]; [9]
  increase of the tumor volume, drug plus radiotherapy, in comparison with other groups: most suppressed
[3]; [10]
  tube formation: inhibited tube formation in a concentration-dependent manner

## CCCCCCCCCCCCCC(=O)OCCCO[C@H]1O[C@H](CS(=O)(=O)[O-])[C@@H](O)[C@H](O)[C@H]1O.[Na+] [αSQAP C14:0, 3-O-(6-sulfo-α-D-quinovopyranosyl)-1-O-myristoyl-propane-1,3-diol sodium salt]
[3]; [10]
  tube formation: inhibited tube formation in a concentration-dependent manner

## CCCCCCCCCCCCCCCCCC(=O)OCCCO[C@H]1O[C@H](CS(=O)(=O)[O-])[C@@H](O)[C@H](O)[C@H]1O.[Na+] [αSQAP C18:0, 3-O-(6-sulfo-α-D-quinovopyranosyl)-1-O-stearoyl-propane-1,3-diol sodium salt]
[4]; 25° C.
  solubility evaluation by the criteria of the general rules Japanese Pharmacopeia: readily soluble
[4]; strongly shaken at 25° C.
  dissolution in injectable water: immediately dissolved
[2]; Example V-1, FIG. 3, drug alone (un-irradiated), 2 mg/kg once a day Day 1 to Day 5, versus 2 Gy on Day 1 and Day 4 alone
  suppression of the increase of the tumor volume compared with radiotherapy alone: at the same level
[2]; Example V-1, FIG. 3, drug alone (un-irradiated), 2 mg/kg once a day Day 1 to Day 5, from about Day 10
  increment of the tumor volume versus non-administered, un-irradiated group: fell below that in the (1) non-administered, un-irradiated group
[2]; Example V-2, FIG. 4, 1 mg/kg once a day Day 1 to Day 5 plus X-ray 4 Gy
  increase of the tumor volume, drug plus radiotherapy, in comparison with other groups: most strongly suppressed
[2]; Example V-2, FIG. 4, drug alone (un-irradiated), 1 mg/kg once a day Day 1 to Day 5
  increment in the tumor volume versus non-administered, un-irradiated group: smaller than that in the (1) non-administered, un-irradiated group
[2]; [9]
  increase of the tumor volume, drug plus radiotherapy, in comparison with other groups: most suppressed
[5]; Example V-3, FIG. 5, 2 mg/kg once a day Day 1 to Day 5 plus X-ray 2 Gy on Day 1 and Day 4
  increase of the tumor volume, drug plus radiotherapy: markedly suppressed
[5]; Example V-4, FIG. 6, calcium(salt)-substituted compound, tail vein 1 mg/kg once a day Day 1 to Day 5 plus X-ray 2 Gy on Day 1 and Day 4
  increase of the tumor volume, drug plus radiotherapy, in comparison with other groups: most suppressed
[6]
  increase of the tumor volume in comparison with the non-administered group: markedly suppressed
[3]; [10]
  tube formation: inhibited tube formation in a concentration-dependent manner
SD rats; 25 to 800 mg/kg, observed for two days
  mortality during the test period: No individual died
SD rats; estimated
  lethal dose: higher than 800 mg/kg
[7]
  mutagenicity: negative
[7]; calcium(salt)-substituted compound
  number of revertant colonies: did not increase

## CCCCCCCCCCCCCCCCCCCCCC(=O)OCCCO[C@H]1O[C@H](CS(=O)(=O)[O-])[C@@H](O)[C@H](O)[C@H]1O.[Na+] [αSQAP C22:0, 3-O-(6-sulfo-α-D-quinovopyranosyl)-1-O-behenoyl-propane-1,3-diol sodium salt]
[3]; [10]
  tube formation: inhibited tube formation in a concentration-dependent manner

## CCCCCCCCCCCCCCCCCC(=O)OCC(O)CO[C@H]1O[C@H](CS(=O)(=O)[O-])[C@@H](O)[C@H](O)[C@H]1O.[Na+] (stereo partly drawn) [αSQMG C18:0, 3-O-(6-sulfo-α-D-quinovopyranosyl)-1-O-stearoyl-glycerol sodium salt, reference compound]
[2]; Example V-1, FIG. 3, 2 mg/kg once a day Day 1 to Day 5 plus X-ray 2 Gy on Day 1 and Day 4
  increase of the tumor volume, drug plus radiotherapy, in comparison with other groups: most suppressed

## CCCCCCCCCCCCCCCCCC(=O)OCCCO[C@@H]1O[C@H](CS(=O)(=O)[O-])[C@@H](O)[C@H](O)[C@H]1O.[Na+] [βSQAP C18:0, 3-O-(6-sulfo-β-D-quinovopyranosyl)-1-O-stearoyl-propane-1,3-diol sodium salt]
[3]; [11]
  tube formation: inhibited tube formation in a concentration-dependent manner

## CCCCCCCC/C=C\CCCCCCCC(=O)OCCCO[C@@H]1O[C@H](CS(=O)(=O)[O-])[C@@H](O)[C@H](O)[C@H]1O.[Na+] [βSQAP C18:1, 3-O-(6-sulfo-β-D-quinovopyranosyl)-1-O-oleoyl-propane-1,3-diol sodium salt]
[3]; [11]
  tube formation: inhibited tube formation in a concentration-dependent manner
